Results taken from US20210177805A1 (Ovid Therapeutics Inc., priority 2018, published 2021).

How the values were obtained:
[1] = test system: subjects with Angelman syndrome; experiment: Efficacy in patients with Angelman syndrome, Clinical Global Impressions (CGI-S, CGI-I); assay type: in vivo, human
Text: CGI-S scale assessed all sub-domains of Angelman syndrome (gross and fine motor ability, sleep, and adaptive behavior) plus globally by the investigator. […] The Clinical Global Impressions-Improvement (CGI-I) scale was used to assess all sub-domains of Angelman syndrome (gross and fine motor ability, sleep, and adaptive behavior) plus globally by the investigator and caregiver. CGI-I is a 7-point scale in which the investigator rates the improvement or worsening of symptoms compared to baseline.
Moreover, the percentage who were very much improved on CGI-I in the QD group vs placebo went from 20% (vs. 11%) to 27% (vs. 9%) to 33% (vs. 0%) progressing from the oldest to youngest cohorts.

[2] = test system: subjects with Angelman syndrome; experiment: Treatment-related and treatment-emergent adverse events in patients with Angelman syndrome
Description: This multicenter, randomized, parallel (3-arm), double-blind, placebo-controlled trial enrolled 88 patients including adults (n=66) and adolescents (n=22) aged 13 to 49 years of age, diagnosed with Angelman syndrome. […] The dosing schedules that were assessed against placebo were once daily (QD): An evening dose titrated to the target dose of 15 mg unless not tolerated; and twice daily (BID): Evening and morning doses titrated to the target doses of 15 mg evening dose and 10 mg morning dose unless not tolerated.
Gastrointestinal adverse events may be considered fundamental to the behavioral disturbances seen in autistic spectrum disorders, such as autism and Angelman syndrome.

[3] = human, in vivo
Description: Each subject was expected to complete all 6 treatment periods and there was a washout of at least 4 days between each treatment period.
Each oral dosing within Treatment Periods consisted of 2 capsules of test drug taken simultaneously at each scheduled dosing. […] Subjects received their study drug after an overnight fast with 240 mL of water in the morning about 8:00 AM. Water was permitted ad libitum except within 1 hour prior to and after study drug administration. No food was allowed for 4 hours post dose.

[4] = test system: subjects with Angelman syndrome; experiment: Sleep diary in patients with Angelman syndrome; assay type: in vivo, human; conditions: for 6-week LS Mean difference, total sleep time at night / 12-week LS Mean difference, total sleep time at night: change from baseline
Text: The most notable change from patient sleep diaries was in the number of nights slept independently. In the QD dose cohort, one quarter of patients slept every night with parents, at 12 weeks, this had improved to only 1 in 5 nights; in the placebo group, the most effected quarter slept 3 of 4 nights with parents, which had improved to 2 of 4 nights at 12 weeks (P<0.001, Chi Square). The observed and change from baseline in total hours of sleep time at night (assessed from subject Sleep Diary) is provided in Table III.

For `Oc1noc2c1CCNC2` [gaboxadol, 4,5,6,7-tetrahydroisoxazolo [5,4-c]pyridine-3-ol], the CGI-I ([1]; QD 15 mg evening dose, 7-point scale, vs. 3.8 placebo, p=0.0006) was 3.0, the “CGI-I 12-week LS Mean” value ([1]; QD dosing (N = 29), clinician assessed, MMRM) was 3.00 (0.16) and the “Abdominal Pain upper, subjects (%)” value ([2]; BID dosing (N = 29)) was 0. For the same compound, the “At least 1 Adverse Event, subjects (%)” value ([2]; BID dosing (N = 29)) was 19 (66%)^, the “Diarrhea, subjects (%)” value ([2]; BID dosing (N = 29)) was 1 (3.4%) and the “Gastrointestinal disorders, subjects (%)” value ([2]; BID dosing (N = 29)) was 4 (13.8%). For the same compound, the “Nausea, subjects (%)” value ([2]; BID dosing (N = 29)) was 2 (6.9%), the “Retching, subjects (%)” value ([2]; BID dosing (N = 29)) was 1 (3.4%) and the “Vomiting, subjects (%)” value ([2]; BID dosing (N = 29)) was 1 (3.4%). For the same compound, the “Abdominal Pain upper, subjects (%)” value ([2]; Combined (N = 58)) was 0, the “At least 1 Adverse Event, subjects (%)” value ([2]; Combined (N = 58)) was 37 (64%)^ and the “Diarrhea, subjects (%)” value ([2]; Combined (N = 58)) was 1 (1.7%). For the same compound, the “Gastrointestinal disorders, subjects (%)” value ([2]; Combined (N = 58)) was 4 (6.9%), the “Nausea, subjects (%)” value ([2]; Combined (N = 58)) was 2 (3.4%) and the “Retching, subjects (%)” value ([2]; Combined (N = 58)) was 1 (1.7%). For the same compound, the “Vomiting, subjects (%)” value ([2]; Combined (N = 58)) was 1 (1.7%), the “Abdominal Pain upper, subjects (%)” value ([2]; QD dosing (N = 29)) was 0 and the “At least 1 Adverse Event, subjects (%)” value ([2]; QD dosing (N = 29)) was 18 (62%). The “Diarrhea, subjects (%)” value ([2]; QD dosing (N = 29)) was 0, the “Gastrointestinal disorders, subjects (%)” value ([2]; QD dosing (N = 29)) was 0 and the “Nausea, subjects (%)” value ([2]; QD dosing (N = 29)) was 0. For the same compound, the “Retching, subjects (%)” value ([2]; QD dosing (N = 29)) was 0, the “Vomiting, subjects (%)” value ([2]; QD dosing (N = 29)) was 0 and the “CL (CL/F row, footnote for 10 mg IV)” value ([3]; iv, 10 mg) was 438 mL/min. The “AUC0-∞ Slope (90% CI), dose proportionality assessment” value ([3]; po) was 0.98 (0.95, 1.01), the “6-week LS Mean sleep time (total sleep time at night, Sleep Diary)” value (“6-week LS Mean sleep time” below) ([4]; BID dosing (N = 29)) was 8.95 (1.1) hours and the “12-week LS Mean sleep time (total sleep time at night, Sleep Diary)” value (shortened to “12-week LS Mean sleep time”) ([4]; BID dosing (N = 29)) was 8.84 (1.1) hours. The “6-week LS Mean difference, total sleep time at night” value (from here on “6-week LS Mean difference”) ([4]; BID dosing) was 0.30 (1.1) hours, the “12-week LS Mean difference, total sleep time at night” value (“12-week LS Mean difference” below) ([4]; BID dosing) was 0.18 (0.97) hours and the “6-week LS Mean sleep time” value ([4]; Combined (N = 58)) was 8.93 (1.3) hours. The “12-week LS Mean sleep time” value ([4]; Combined (N = 58)) was 8.80 (1.1) hours, the “6-week LS Mean difference” value ([4]; Combined) was 0.22 (0.94) hours and the “12-week LS Mean difference” value ([4]; Combined) was 0.07 (1.0) hours. The “6-week LS Mean sleep time” value ([4]; QD dosing (N = 29)) was 8.91 (1.5) hours, the “12-week LS Mean sleep time” value ([4]; QD dosing (N = 29)) was 8.76 (1.2) hours and the “6-week LS Mean difference” value ([4]; QD dosing) was 0.14 (0.81) hours. For the same compound, the “12-week LS Mean difference” value ([4]; QD dosing) was −0.04 (1.1) hours.
